Results: patent US20230312571A1, “RING-MODIFIED PROLINE SHORT PEPTIDE COMPOUND AND USE THEREOF” (priority 2021, published 2023)
Like-named read-outs stand apart in the source and are kept apart here.

Experiments:
[1] = tested on: SARS-CoV-2 virus (Novel coronavirus βCoV/KOR/KCDC03/2020 strain); experiment: Anti-novel coronavirus activity in Vero cells (immunofluorescence, high-content imaging); type: cell-based; details: Severe acute respiratory syndrome coronavirus 2, wild-type novel coronavirus, MOI=0.0125, 24 hours
in vitro = details: African green monkey
SARS-CoV-2 Mpro = SARS-CoV-2 Mpro (Severe acute respiratory syndrome coronavirus 2 (2019-nCoV) (SARS-CoV-2), UniProt P0DTD1); experiment: In vitro anti-novel coronavirus Mpro protease activity (fluorescent substrate cleavage); type: biochemical
Protocol: The compound was dissolved in DMSO, and diluted in a 3-fold gradient with Echo655 according to the concentration requirements to 10 concentration points, and duplicate tests were set at each concentration, and the diluted solution was added to a 384-well plate. Mpro protein and substrate were diluted with test buffer (100 mM NaCl, 20 mM Tris-HCl, 1 mM EDTA), and Mpro protein was added to the 384-well test plate, incubated with the compound for 30 min at room temperature, and then the substrate was added thereto, and the test concentration of Mpro protein was 25 nM, and the test concentration of substrate was 25 µM. After incubating for 60 minutes in a 30° C. constant temperature incubator, the fluorescence signal value of Ex/Em=340 nm/490 nm was detected by microplate reader. At the same time, the background well containing the substrate and compound but not containing Mpro protein was detected as control.

[2] = Cytotoxicity in the cytopathic model, without virus infection (CellTiter Glo); details: human
coronavirus HCoV OC43 = experiment: In vitro anti-coronavirus activity by cytopathic model (CPE, CellTiter Glo); type: cell-based; details: HCoV OC43 100 TCID50/well, MRC5 cells, 5 days
Protocol: MRC5 cells and coronavirus HCoV OC43 were purchased from ATCC.
MRC5 cells were cultured in MEM (Sigma) medium supplemented with 10% fetal bovine serum (Excell), 1% double antibody (Hyclone), 1%L-glutamine (Gibco) and 1% non-essential amino acids (Gibco). MEM (Sigma) medium supplemented with 5% fetal bovine serum (Excell), 1% double antibody (Hyclone), 1% L-glutamine (Gibco) and 1% non-essential amino acid (Gibco) was used as the experimental culture medium.
Cells were inoculated into a 96 microwell plate at a certain density (Table 6) and cultured overnight in an incubator at 5% CO2 and 37° C. On the second day, the compound was added after doubling dilution (8 concentration points, duplicate wells), with 50 µL per well. Then the diluted virus was added to the cells at 100 TCID50 per well, 50 µL per well. Cell control (cell without compound treatment or virus infection), virus control (cell infected with virus without compound treatment) and culture medium control (only culture medium) were set. The final volume of the culture medium in this experiment was 200 µL, and the final concentration of DMSO in the culture medium was 0.5%. Cells were cultured in a 5% CO2, 33° C. incubator for 5 days. Cell viability was detected using the cell viability assay kit CellTiter Glo (Promega). Cytotoxicity experiments were performed under the same conditions as antiviral experiments, but without virus infection.
The antiviral activity and cytotoxicity of the compound were represented by the inhibition rate (%) and cell viability (%) of the compound on the cytopathic effect caused by the virus at different concentrations, respectively. The calculation formula is as follows: […]
GraphPad Prism was used to perform nonlinear fitting analysis on the inhibition rate and cell viability of the compound, and the half effective concentration (EC50) and half cytotoxic concentration (CC50) of the compound were calculated.

Vero cells = details: 24 hours
[3] = set-up: species or system C57BL/6J male mice; details: mouse, in vivo, po, 10 mg/kg
Protocol: In this study, C57BL/6J male mice were selected as test animals, and the LC/MS/MS method was used to quantitatively measure the plasma concentrations of mice in combination with Ritonavir at different time points, so as to evaluate the pharmacokinetic characteristics of the test drug in mice.
Firstly, 10 mpk of Ritonavir was administered to mice by intragastric administration at -12 h and 0 h, and then the test compound was dissolved in 30% PEG400+70% normal saline solution and administered to mice by intragastric administration (overnight fasting, 6 to 8 weeks old). 25 µL of blood was collected at 0.083, 0.25, 0.5, 1, 2, 4, 8, 12 and 24 hours after administration to animals, placed in a commercial anticoagulant tube pre-added with EDTA-K2, and centrifuged at 4° C., 3200 g for 10 min to obtain plasma. After the plasma samples were treated, the plasma concentration was determined by LC-MS/MS method.

[4] = Tissue distribution test in rats (plasma and lung, with Ritonavir); type: in vivo, SD male rats; details: 30 mpk p.o. with Ritonavir 10 mpk
Protocol: In this study, SD male rats were selected as test animals, and the drug concentrations of test compounds in plasma and lungs of rats at different time points were quantitatively measured by LC/MS/MS method to evaluate the pharmacokinetic characteristics of test drugs in rats.
Firstly, 10 mpk of Ritonavir was administered to rats by intragastric administration at -12 h and 0 h, and 30 mpk of the test compound was dissolved in 10% Solutol + 30% PEG 400 + 2% Tween 80+H2O 58% solution and administered to rats by intragastric administration (overnight fasting). 40 µL of blood was collected from the saphenous vein of rats at 0.25, 1 and 6 hours after administration, placed in an anticoagulant tube added with EDTA-K2, centrifuged at 4° C., 3200 g for 10 min to obtain plasma, and some animals were killed at 0.25, 1 and 6 hours respectively to collect lung tissue. After the plasma samples were treated, the plasma concentration was determined by LC-MS/MS method.

[5] = set-up: species or system C57BL/6J male mice; details: mouse, in vivo
Protocol: In this study, C57BL/6J male mice were selected as test animals, and LC/MS/MS method was used to quantitatively measure the plasma concentration of the test compound 11 at different time points after oral administration and injection in mice, so as to evaluate the pharmacokinetic characteristics of the test drug in mice.
The test compound dissolved in 30% PEG400+70% normal saline was administered to mice (overnight fasting, 6-8 weeks old) by intragastric administration. 25 µL of blood was collected at 0.083, 0.25, 0.5, 1, 2, 4, 8, 12 and 24 hours after administration, respectively, and placed in commercial anticoagulation tubes pre-added with EDTA-K2, centrifuged at 4° C., 3200 g for 10 min to obtain plasma, and after the plasma sample was treated, the plasma concentration was determined by LC-MS/MS method.

[6] = 25 nM Mpro protein, 25 µM substrate, read-out: IC50

SMILES	EC50 [1]	CC50 (in vitro)	IC50 (SARS-CoV-2 Mpro)	CC50 at 5 days [2]	EC50 (coronavirus HCoV OC43; Betacoronavirus 1, 120 h)	IC50 (SARS-CoV-2 Mpro; [6])	other results
N#C[C@H](C[C@@H]1CCNC1=O)NC(=O)[C@@H]1[C@H]2CC[C@H](C2)N1C(=O)[C@@H](NC(=O)C(F)(F)F)C12CCC(CC1)CC2 [Compound 4]	30 nM	> 5000 nM	53 nM	> 10000 nM	141 nM		
CC1C[C@@H]2C[C@H]1[C@@H](C(=O)N[C@H](C#N)C[C@@H]1CCNC1=O)N2C(=O)[C@@H](NC(=O)C(F)(F)F)C12CC3CC(CC(C3)C1)C2 (stereo partly shown) [Compound 12]						17 nM	
N#C[C@H](C[C@@H]1CCNC1=O)NC(=O)[C@@H]1[C@H]2CC[C@H](C2)N1C(=O)[C@@H](NC(=O)C(F)(F)F)C12CC3CC(CC(C3)C1)C2 [Compound 3]	35 nM	> 5000 nM	21 nM	> 10000 nM	62 nM		
CC1C[C@H]2C[C@@H]1N(C(=O)[C@@H](NC(=O)C(F)(F)F)C(C)(C)C)[C@@H]2C(=O)N[C@H](C#N)C[C@@H]1CCNC1=O (stereo partly shown) [Compound 5]	20 nM	> 5000 nM		> 10000 nM	205 nM		
CC1([C@H](NC(=O)C(F)(F)F)C(=O)N2[C@@H]3CC[C@@H](C3)[C@H]2C(=O)N[C@H](C#N)C[C@@H]2CCNC2=O)CCCCC1 [Compound 7]			62 nM				
CC(C)(C)[C@H](NC(=O)C(F)(F)F)C(=O)N1[C@H]2C[C@@H]([C@H]1C(=O)N[C@H](C#N)C[C@@H]1CCNC1=O)C(F)(F)C2 [Compound 10]						17 nM	
CC(C)(C)[C@H](NC(=O)C(F)(F)F)C(=O)N1[C@H]2C[C@@H]([C@H]1C(=O)N[C@H](C#N)C[C@@H]1CCNC1=O)C1(CC1)C2 [Compound 11]						5.4 nM	CC50 (MRC5 cells): > 10000 nM; CC50 (Vero cells): > 5000 nM; AUC0-last [3]: 28.683 µM·h; Cmax [3]: 10.1 µM; Tmax [3]: 30 min; Ratio lung/plasma of AUC(0-6 h) [4]: 2.6/1; Ratio lung/plasma ([4]; 0.25 h): 5.5/1; Ratio lung/plasma ([4]; 1 h): 3.2/1; Ratio lung/plasma ([4]; 6 h): 1.6/1; AUC0-last ([5]; iv, 3 mg/kg): 1.447 µM·h; CL ([5]; iv, 3 mg/kg): 68.5 mL/min/kg; T½ ([5]; iv, 3 mg/kg): 12 min; Vdss ([5]; iv, 3 mg/kg): 0.9 L/kg; AUC0-last ([5]; po, 10 mg/kg): 1.519 µM·h; Cmax ([5]; po, 10 mg/kg): 1.85 µM; Tmax ([5]; po, 10 mg/kg): 15 min; EC50 (coronavirus HCoV OC43): 3.5 nM
CC(C)(C)[C@H](NC(=O)C(F)(F)F)C(=O)N1[C@H]2C[C@@H]([C@H]1C(=O)N[C@H](C#N)C[C@@H]1CCNC1=O)C(F)(F)C2 [Compound 6]			135 nM				
Cc1ccc(CC(=O)N[C@H](C(=O)N2[C@@H]3CC[C@@H](C3)[C@H]2C(=O)N[C@H](C#N)C[C@@H]2CCNC2=O)C23CC4CC(CC(C4)C2)C3)cc1 [Compound 13]						75 nM	
